From ChEMBL document CHEMBL5357084, “Structure-Guided Discovery of Diverse Cytotoxic Dimeric Xanthones/Chromanones from Penicillium chrysogenum C-7-2-1 and Their Interconversion Properties” (J Nat Prod, 2024) come the findings set out here.

Broadly, the IC50 is the concentration that gives 50% inhibition.

The subject of experiment [1] is NCI-H1299. As to the kind of experiment: Cytotoxicity against human NCI-H1299 cells assessed as inhibition of cell growth at 50 uM measured after 48 hrs by MTT assay relative to control. The experiment is classed as functional. Details: scale not given: the % may be the effect or the level left. On the technique in general: Tetrazolium dyes change colour on reduction, which living cells bring about.

For experiment [2], the system named is BEAS-2B. The experiment in a line: Cytotoxicity against human BEAS-2B cells assessed as inhibition of cell growth at 50 uM measured after 48 hrs by MTT assay relative to control. Type of experiment: functional.
The subject of experiment [3] is NCI-H23. As to the kind of experiment: Cytotoxicity against human NCI-H23 cells […] at 50 uM measured after 48 hrs by MTT assay relative to control. The experiment is classed as functional.
Experiment [4] relates to Caco-2. The experiment in a line: Cytotoxicity against human Caco-2 cells assessed as inhibition of cell growth at 50 uM measured after 48 hrs by MTT assay relative to control. Type of experiment: functional. Details: scale not given: the % may be the effect or the level left.
For experiment [5], the system named is SW-620. As to the kind of experiment: Cytotoxicity against human SW620 cells assessed as inhibition of cell growth at 50 uM measured after 48 hrs by MTT assay relative to control. The experiment is classed as functional.
Experiment [6] concerns A-375. The experiment in a line: Cytotoxicity against human A-375 cells […] at 50 uM measured after 48 hrs by MTT assay relative to control. The experiment is classed as functional.
For experiment [7], the system named is NCI-H23. As to the kind of experiment: Cytotoxicity against human NCI-H23 cells assessed as inhibition of cell growth measured after 48 hrs by MTT assay. Type of experiment: functional, cell-based. The note with it: NCI-H23, 48 h.
In experiment [8] the test system is A-375. As to the kind of experiment: Cytotoxicity against human A-375 cells assessed as inhibition of cell growth measured after 48 hrs by MTT assay. Type of experiment: functional, cell-based. Conditions: A-375, 48 h.
Experiment [9] concerns Caco-2. As to the kind of experiment: Cytotoxicity against human Caco-2 cells assessed as inhibition of cell growth measured after 48 hrs by MTT assay. The experiment is classed as functional, cell-based. Conditions: Caco-2, 48 h.
Experiment [10] concerns SW-620. The experiment in a line: Cytotoxicity against human SW620 cells assessed as inhibition of cell growth measured after 48 hrs by MTT assay. Type of experiment: functional, cell-based.
The subject of experiment [11] is NCI-H1299. As to the kind of experiment: Cytotoxicity against human NCI-H1299 cells assessed as inhibition of cell growth measured after 48 hrs by MTT assay. The experiment is classed as functional, cell-based. Conditions: NCI-H1299, 48 h.
Experiment [12] has as its system BEAS-2B. As to the kind of experiment: Cytotoxicity against human BEAS-2B cells assessed as inhibition of cell growth measured after 48 hrs by MTT assay. Type of experiment: functional, cell-based.
Where [13] appears, read: Homo sapiens, SW-620, 48 h, read-out: IC50.

Calls of active or inactive are those of the source. The rule behind the calls is not given here.

`COC(=O)[C@@]12Oc3ccc(-c4ccc(O)c5c4O[C@@](C(=O)OC)([C@H]4OC(=O)C[C@@H]4C)CC5=O)c(O)c3C(=O)C1=C(O)C[C@H](C)[C@H]2O`: the Activity in experiment [1] is 65.9%; in experiment [3] it was 56%; in experiment [4] it was 82.4%; in experiment [6] it was 76.8%. Also, the outcome in experiment [2] was inactive. In experiment [5], the “Cell growth relative to control” value came to 94.9%.

Take `COC(=O)C[C@H](C)[C@@H](O)[C@]1(C(=O)OC)CC(=O)c2c(ccc(-c3ccc4c(c3O)C(=O)C[C@](C(=O)OC)([C@@]3(O)OC(=O)C[C@@H]3C)O4)c2O)O1`: the Activity was 87.9% in experiment [1], 73.6% in experiment [3], 92.1% in experiment [4] and 94.4% in experiment [6]. Moreover, the “Cell growth relative to control” value in experiment [2] was 171.6%; in [5] it was 115.5%.

In the case of `COC(=O)[C@]12Oc3ccc(-c4ccc5c(c4O)C(=O)C4=C(O)C[C@@H](C)[C@H](O)[C@@]4(C(=O)OC)O5)c(O)c3C(=O)C1=C(O)C[C@@H](C)[C@@H]2O` [SECALONIC ACID A], the Activity in [1] is 73.6%; in experiment [3], 8.7%; in [4], 54.5%; in experiment [6], 75.6%. Besides, the IC50 was 2.6 µM in [7]; more than 50 µM in experiment [8]; more than 50 µM in [9]; more than 50 µM in [10] (setting [13]); more than 50 µM in experiment [11]; “Not Active” in experiment [12] (beas-2b). The results for the “Cell growth relative to control” value in [2] and in [5] were 107.3% and 80.1%, respectively.

On to `COC(=O)[C@]1([C@H]2OC(=O)C[C@@H]2C)CC(=O)c2c(ccc(-c3ccc4c(c3O)C(=O)C[C@@](C(=O)OC)([C@H](O)[C@@H](C)CC(=O)O)O4)c2O)O1`, for which the Activity in experiment [1] amounted to 76.4%; in [3], 90.1%; in experiment [4], 46.8%; in experiment [6], 63%. In addition, the IC50 in [7] is more than 50 µM; in experiment [8], more than 50 µM; in [9] it was 25.9 µM; in experiment [10] (setting [13]), more than 50 µM; in experiment [11], more than 50 µM; in experiment [12] (beas-2b), “Not Active”. In addition, the “Cell growth relative to control” value in experiment [2] is reported as 158.7%; in experiment [5] it was 70.5%.

As to `COC(=O)[C@@]12Oc3c(-c4ccc(O)c5c4O[C@]4(C(=O)O)C(=C(O)C[C@@H](C)[C@@H]4O)C5=O)ccc(O)c3C(=O)C1=C(O)C[C@H](C)[C@@H]2O`, the Activity in [1] was 38.2%; in [3], 6.7%; in experiment [4], 73.2%; in [6] it was 84.1%. The IC50 in [7] was 3.9 µM; in [8] it was more than 50 µM; in [9], more than 50 µM; in experiment [10] (sw-620), “Not Active”; in experiment [11], 30.9 µM; in [12] (beas-2b), “Not Active”. In addition, the “Cell growth relative to control” value is 155.5% in experiment [2] and 99.9% in experiment [5].

As to `COC(=O)[C@@]1([C@H](O)[C@@H](C)CC(=O)O)CC(=O)c2c(ccc(-c3ccc(O)c4c3O[C@](C(=O)OC)([C@H](O)[C@@H](C)CC(=O)O)CC4=O)c2O)O1`, the Activity in experiment [1] is given as 78.6%; in [3], 73.1%; in experiment [4], 94.4%; in [6] it was 91.7%. The “Cell growth relative to control” value in [2] is 110%; in [5] it was 99.3%.

In the case of `COC(=O)[C@@]12Oc3c(-c4ccc5c(c4O)C(=O)C[C@](C(=O)OC)([C@H]4OC(=O)C[C@@H]4C)O5)ccc(O)c3C(=O)C1=C(O)C[C@H](C)[C@H]2O`, the Activity stood at 64.2% in [1], 82.8% in experiment [3], 99.2% in [4] and 86.1% in [6]. Also, the “Cell growth relative to control” value was found to be 179.2% in experiment [2] and 111% in experiment [5].

In the case of `COC(=O)C[C@H](C)[C@@H](O)[C@]1(C(=O)OC)CC(=O)c2c(O)ccc(-c3ccc4c(c3O)C(=O)C[C@](C(=O)OC)([C@@]3(O)OC(=O)C[C@@H]3C)O4)c2O1`, the Activity is listed as 70.4% in [1], 86.7% in experiment [3], 55.9% in experiment [4] and 102.5% in experiment [6]. Also, the figures for the “Cell growth relative to control” value in experiment [2] and in experiment [5] were 171% and 72.9%, respectively.

Consider `COC(=O)[C@@]12Oc3c(c(O)cc(C)c3-c3ccc4c(c3O)C(=O)C3=C(O)C[C@H](C)[C@H](O)[C@]3(C(=O)OC)O4)C(=O)C1=C(O)CC[C@H]2O`, for which the Activity amounted to 81.1% in experiment [1], 82.6% in [3], 85% in experiment [4] and 79.9% in experiment [6]. The “Cell growth relative to control” value in [2] is reported as 99.5%; in experiment [5], 106.3%.

For `COC(=O)[C@@]1([C@H](O)[C@@H](C)CC(=O)O)CC(=O)c2c(ccc(-c3ccc4c(c3O)C(=O)C[C@@](C(=O)OC)([C@H](O)[C@@H](C)CC(=O)O)O4)c2O)O1`, the Activity amounted to 64.9% in experiment [1], 83.6% in experiment [3], 94.4% in [4] and 103.2% in experiment [6]. Besides, the results for the “Cell growth relative to control” value in experiment [2] and in experiment [5] were 105.5% and 98.7%, respectively.

On to `COC(=O)[C@@]12Oc3c(-c4ccc5c(c4O)C(=O)C[C@](C(=O)OC)([C@@H]4OC(=O)C[C@@H]4C)O5)ccc(O)c3C(=O)C1=C(O)C[C@H](C)[C@H]2O`, for which the Activity was 66.2% in experiment [1], 102.6% in [3], 102.4% in experiment [4] and 106% in experiment [6]. Moreover, the “Cell growth relative to control” value in experiment [2] was determined as 96.8%; in experiment [5] it was 117%.

On to `CNC(=O)c1cc(Oc2ccc(NC(=O)Nc3ccc(Cl)c(C(F)(F)F)c3)cc2)ccn1` [SORAFENIB], for which the IC50 in [7] was determined as 2.4 µM; in experiment [8], 1.8 µM; in experiment [9], 1.3 µM; in experiment [10] (setting [13]), 2.3 µM; in experiment [11] it was 3.4 µM; in experiment [12] (Homo sapiens, BEAS-2B, 48 h, read-out: IC50), 31.6 µM.

Consider `COC(=O)[C@@]12Oc3cc(C)c(-c4ccc5c(c4O)C(=O)C4=C(O)C[C@H](C)[C@H](O)[C@]4(C(=O)OC)O5)c(O)c3C(=O)C1=C(O)CC[C@H]2O`, for which the Activity in experiment [1] worked out at 76.4%; in experiment [3] it was 5.2%; in [4], 68.9%; in experiment [6] it was 83.9%. Besides, the concentration for half-maximal inhibition (IC50) was 6.9 µM in [7]; more than 50 µM in experiment [8]; more than 50 µM in [9]; more than 50 µM in [10] (setting [13]); more than 50 µM in experiment [11]; “Not Active” in [12] (beas-2b). In addition, the results for the “Cell growth relative to control” value in experiment [2] and in experiment [5] were 155.8% and 98.9%, respectively.

For `COC(=O)[C@@]12Oc3ccc(-c4ccc5c(c4O)C(=O)C[C@](C(=O)OC)([C@H]4OC(=O)C[C@@H]4C)O5)c(O)c3C(=O)C1=C(O)C[C@H](C)[C@H]2O`, the Activity came out at 78.4% in experiment [1], 87.6% in [3], 82.5% in experiment [4] and 74.7% in [6]. The figures for the “Cell growth relative to control” value in experiment [2] and in experiment [5] were 109.9% and 90.4%, respectively.
